System: Plasmodium berghei
Assay: Luciferase/luciferin-expressing antifolate-resistant parasites were used to infect a culture of HepG2 cells that were pre-incubated with compounds. Infected hepatocytes emit light due to the luciferase reaction. Assay results are presented as the percent inhibition of light emission compared to control. […]
Format: functional
Details: sporozoite; for IC90: read-out: LUCIFERASE INFECTION ASSAY - IC90
[1] = read-out: LUCIFERASE INFECTION ASSAY - IC50

Structure (SMILES)	IC90	IC50 [1]	other results
CSc1nccc(-c2ccsc2)n1	> 15.8 µM	–	IC50 (FFLUC_HILL_SLOPE 14.6, FFLUC_R_SQUARED 0.758, read-out: LUCIFERASE INFECTION ASSAY - IC50): > 15.8 µM
O=c1c2ccccc2oc2nc(-c3ccccc3)n(Cc3ccccc3)c(=O)c12	4.41 µM	–	IC50 (PBLUC_HILL_SLOPE 10.1, PBLUC_R_SQUARED 0.696, read-out: LUCIFERASE INFECTION ASSAY - IC50): 3.55 µM
CSc1sc(-c2nc(C(C)(C)C)cs2)c(C)c1C(C)=O	> 10.1 µM	> 10.1 µM	–
Cc1cc(C)c(N/C=C2/C(=O)N(c3ccccc3Cl)C(=O)c3ccccc32)c(C)c1	> 10 µM	> 10 µM	–
N#Cc1c(N)nc2c(c1N)C(C(C#N)C#N)c1cc(Br)ccc1O2 (stereo not drawn)	> 8.66 µM	–	IC50 (FFLUC_HILL_SLOPE 1.21, FFLUC_R_SQUARED 0.243, read-out: LUCIFERASE INFECTION ASSAY - IC50): > 8.66 µM
FC(F)(F)Oc1ccc(N=C(S)Nc2ccc(OC(F)(F)F)cc2)cc1	> 8.33 µM	> 8.33 µM	–
COc1cc(/C=C2\C=c3ccccc3=C2O)cc(Cl)c1OC(C)C	> 10 µM	> 10 µM	–
O=C(Cn1nnc2ccccc2c1=O)c1ccc(C2CCCCC2)cc1	> 10 µM	–	IC50 (PBLUC_HILL_SLOPE 0.775, PBLUC_R_SQUARED 0.761, read-out: LUCIFERASE INFECTION ASSAY - IC50): 1.11 µM
CCCCCc1ccc(-c2nnc(SCC(=O)c3ccccc3)[nH]2)cc1	> 9.03 µM	–	IC50 (PBLUC_HILL_SLOPE 2.65, PBLUC_R_SQUARED 0.501, read-out: LUCIFERASE INFECTION ASSAY - IC50): > 9.03 µM
COc1ccccc1N(Cc1cc2ccc(C)cc2[nH]c1=O)S(=O)(=O)c1ccccc1	> 10 µM	> 10 µM	–
CNC(=O)NC(=O)C(C)N1CCN(CCc2cccs2)CC1 (stereo not drawn)	> 10 µM	> 10 µM	–
O=C(Nc1cccc([N+](=O)[O-])c1)NC1CCSc2ccc(F)cc21 (stereo not drawn)	4.49 µM	3.86 µM	–
O=C1c2ccccc2O[C@@H](c2ccc(Cl)cc2)[C@@H]1O	> 12 µM	–	IC50 (PBLUC_HILL_SLOPE 64.7, PBLUC_R_SQUARED 0.241, read-out: LUCIFERASE INFECTION ASSAY - IC50): 12 µM
CCOCCCNC(=O)/C(C#N)=C/c1ccc(Cl)c([N+](=O)[O-])c1	9.95 µM	5.19 µM	–
COc1cccc(NC(=O)Nc2nc(-c3cc4ccccc4o3)cs2)c1	7.91 µM	–	IC50 (PBLUC_HILL_SLOPE 6.07, PBLUC_R_SQUARED 0.713, read-out: LUCIFERASE INFECTION ASSAY - IC50): 5.5 µM
CCOc1ncccc1C(=O)Nc1cc(S(=O)(=O)N2CCOCC2)ccc1Oc1ccccc1	> 10 µM	–	IC50 (FFLUC_HILL_SLOPE 2.19, FFLUC_R_SQUARED 0.739, read-out: LUCIFERASE INFECTION ASSAY - IC50): > 10 µM
CCCc1c(C(=O)ONC(=N)c2ccc(C(C)(C)C)cc2)cnn1-c1ccccc1	> 8.16 µM	> 8.16 µM	–
COc1ccc(-c2cnc3ccc(NCc4ccc(Cl)c(Cl)c4)nn23)cn1	4.73 µM	4.63 µM	–
O=C(Nc1ccc(F)cc1F)c1cc(Cl)cc(Cl)c1O	> 10.4 µM	–	IC50 (PBLUC_HILL_SLOPE 2.53, PBLUC_R_SQUARED 0.435, read-out: LUCIFERASE INFECTION ASSAY - IC50): 4.75 µM
Cc1c(-c2ccccc2)oc2c(C(=O)N(Cc3ccccc3Cl)S(=O)(=O)c3cccc(C(F)(F)F)c3)cccc2c1=O	> 10 µM	–	IC50 (HEPG2TOX_HILL_SLOPE 8.04, HEPG2TOX_R_SQUARED 0.64, PBLUC_HILL_SLOPE 8.59, PBLUC_R_SQUARED 0.6, read-out: LUCIFERASE INFECTION ASSAY - IC50): 7.82 µM
COc1cc2c(cc1NC(=O)C(C)N1CCC(C(N)=O)CC1)oc1ccccc12 (stereo not drawn)	> 10 µM	–	IC50 (PBLUC_HILL_SLOPE 1.06, PBLUC_R_SQUARED 0.647, read-out: LUCIFERASE INFECTION ASSAY - IC50): 1.32 µM
CC(NC(=O)c1cccc(Nc2ncccn2)c1)c1cccc(C(F)(F)F)c1 (stereo not drawn)	6.34 µM	0.729 µM	–
O=C(Nc1ccc(N2CCOCC2)cc1)c1cccc(-c2nn[nH]n2)c1	> 10 µM	> 10 µM	–
Fc1ccc(-c2nc3ccccc3n2-c2cc(-c3ccccc3)n[nH]2)cc1	5.27 µM	–	IC50 (PBLUC_HILL_SLOPE 1.15, 2.25, PBLUC_R_SQUARED 0.601, 0.956, read-out: LUCIFERASE INFECTION ASSAY - IC50): 1.58 µM
CC(C)NC(=O)c1c(NC(=O)c2cc(F)ccc2F)nc2ccccn12	> 9.21 µM	–	IC50 (PBLUC_HILL_SLOPE 2.78, PBLUC_R_SQUARED 0.497, read-out: LUCIFERASE INFECTION ASSAY - IC50): 6.02 µM

Structure (SMILES)	IC90	IC50 [1]	other results
COc1ccc(-c2csc(NC(=O)CN3CCN(c4ncnc5c4cnn5C)CC3)n2)cc1	3.88 µM	–	IC50 (HEPG2TOX_HILL_SLOPE 1.28, 1.59, HEPG2TOX_R_SQUARED 0.849, 0.471, PBLUC_HILL_SLOPE 15.7, 12.8, PBLUC_R_SQUARED 0.495, 0.575, read-out: LUCIFERASE INFECTION ASSAY - IC50): 3.31 µM
O=C(/C=C/c1cccc(NC(=O)C(F)(F)F)c1)c1cc2ccccc2o1	5.08 µM	–	IC50 (HEPG2TOX_HILL_SLOPE 11, HEPG2TOX_R_SQUARED 0.396, PBLUC_HILL_SLOPE 8.92, PBLUC_R_SQUARED 0.395, read-out: LUCIFERASE INFECTION ASSAY - IC50): 3.97 µM
COc1ccc(-c2[nH]c3ccc(F)cc3c2CCC(=O)NCc2nnc3ccccn23)cc1	> 10 µM	–	IC50 (PBLUC_HILL_SLOPE 1.44, 1.44, PBLUC_R_SQUARED 0.412, 0.538, read-out: LUCIFERASE INFECTION ASSAY - IC50): 5.36 µM
CCO/C=N\C1=C(C#N)C(c2ccc(F)cc2)c2ccc3ccccc3c2O1 (stereo not drawn)	> 8.86 µM	> 8.86 µM	–
Fc1cccc(-c2cc3c(Nc4ccc5c(c4)OCCO5)nccc3[nH]2)c1	7.25 µM	–	IC50 (HEPG2TOX_HILL_SLOPE 14.3, HEPG2TOX_R_SQUARED 0.604, PBLUC_HILL_SLOPE 1.45, PBLUC_R_SQUARED 0.727, read-out: LUCIFERASE INFECTION ASSAY - IC50): 1.59 µM
Cc1nc(NCc2ccc3c(c2)OCO3)c2c3c(sc2n1)CCCC3	> 10 µM	–	IC50 (PBLUC_HILL_SLOPE 12.4, PBLUC_R_SQUARED 0.761, read-out: LUCIFERASE INFECTION ASSAY - IC50): 8.99 µM
O=C(NNc1ccc(I)cc1)c1cc(Cl)cc(Cl)c1	2.86 µM	–	IC50 (HEPG2TOX_HILL_SLOPE 2.56, HEPG2TOX_R_SQUARED 0.673, PBLUC_HILL_SLOPE 20.4, PBLUC_R_SQUARED 0.213, read-out: LUCIFERASE INFECTION ASSAY - IC50): 2.56 µM
Cc1onc(-c2c(Cl)cccc2Cl)c1C(=O)ONC(=N)c1c(Cl)cccc1Cl	> 7.19 µM	–	IC50 (PBLUC_HILL_SLOPE 3.4, PBLUC_R_SQUARED 0.373, read-out: LUCIFERASE INFECTION ASSAY - IC50): 5.6 µM
Cc1oc2cc(OCC(=O)N3CCc4ccccc43)ccc2c(=O)c1-c1c(F)cccc1Cl	> 10 µM	–	IC50 (FFLUC_HILL_SLOPE 15.3, FFLUC_R_SQUARED 0.621, read-out: LUCIFERASE INFECTION ASSAY - IC50): > 10 µM
Cc1c(C)n(CCCN(C)C)c2ncn3nc(COc4ccccc4)nc3c12	> 8.72 µM	–	IC50 (PBLUC_HILL_SLOPE 0.81, PBLUC_R_SQUARED 0.755, read-out: LUCIFERASE INFECTION ASSAY - IC50): 0.821 µM
O=C(Nc1ccc(Cl)cc1)O/N=C(\Nc1ccc(OC(F)(F)F)cc1)c1c(Cl)cccc1Cl	> 6.36 µM	–	IC50 (PBLUC_HILL_SLOPE 0.408, PBLUC_R_SQUARED 0.392, read-out: LUCIFERASE INFECTION ASSAY - IC50): > 6.36 µM
CC1Cc2ccccc2N1C(=O)c1cn(-c2ccccc2)nc1-c1ccc(F)cc1 (stereo not drawn)	9.94 µM	–	IC50 (HEPG2TOX_HILL_SLOPE 8.75, HEPG2TOX_R_SQUARED 0.907, PBLUC_HILL_SLOPE 3.93, PBLUC_R_SQUARED 0.478, read-out: LUCIFERASE INFECTION ASSAY - IC50): 5.68 µM
O=C(c1cc(S(=O)(=O)Nc2cccc(-n3cccn3)c2)c[nH]1)N1CCCC1	> 10 µM	9.51 µM	–
CNc1nnc(Sc2ncnc3ccsc23)s1	9.41 µM	–	IC50 (PBLUC_HILL_SLOPE 11, PBLUC_R_SQUARED 0.35, read-out: LUCIFERASE INFECTION ASSAY - IC50): 7.71 µM
O=C(Cc1ccc(O)cc1)N1CCc2nc(NCc3cccc(Oc4ccccc4)c3)ncc2C1	4.97 µM	–	IC50 (HEPG2TOX_HILL_SLOPE 1.26, HEPG2TOX_R_SQUARED 0.949, PBLUC_HILL_SLOPE 2.67, PBLUC_R_SQUARED 0.466, read-out: LUCIFERASE INFECTION ASSAY - IC50): 2.18 µM
COCCNc1nc2cnc(-c3cccc(Oc4ccccc4)c3)cc2n1C	> 10 µM	–	IC50 (PBLUC_HILL_SLOPE 2.22, PBLUC_R_SQUARED 0.147, read-out: LUCIFERASE INFECTION ASSAY - IC50): 6.81 µM
COc1cccc(Nc2nc(C(N)Cc3ccc(F)cc3)cs2)n1 (stereo not drawn)	> 9.58 µM	> 9.58 µM	–
O=c1cc(O)c2c(=O)n3c4c(cccc4c2o1)CCC3	> 12.3 µM	> 12.3 µM	–
CCn1nc(C)c(CN2CCC3(CC2)C(=O)N(Cc2ccccc2)C(=O)N3CCc2ccccc2)c1C	> 6.6 µM	2.92 µM	–
Cc1cc(C)n2nc(SCC(=O)c3c(-c4ccccc4)[nH]c4ccccc34)nc2n1	5.12 µM	–	IC50 (PBLUC_HILL_SLOPE 3.17, 7.12, PBLUC_R_SQUARED 0.979, 0.666, read-out: LUCIFERASE INFECTION ASSAY - IC50): 4.67 µM
O=C(c1cccc(-c2nn[nH]n2)c1)N1CCC2CCCCC2C1 (stereo not drawn)	> 10 µM	> 10 µM	–
COc1cc(NC(=O)N2Cc3cnc(Nc4cccc(N(C)C)c4)nc3C2)cc(OC)c1OC	> 7.1 µM	> 7.1 µM	–
CC(OC(=O)C1CC1)C(=O)Nc1ccnn1C(C)C (stereo not drawn)	> 10 µM	> 10 µM	–
Cc1ccc(N2C(=O)C=CC2=O)cc1N1C(=O)C=CC1=O	> 11.7 µM	7.78 µM	–

From ChEMBL document CHEMBL4483862, “Open-source discovery of chemical leads for next-generation chemoprotective antimalarials” (2018)
